According to patent US7829114B2, “Capsules containing aqueous fill compositions stabilized with derivatized cyclodextrin” (CyDex Pharmaceuticals, Inc., priority 2002, dated 2010):
Read-outs that look alike come from different tables or passages of the source. Blank lines part the entries; values can stand above or below the compound they belong to.

Legend:
Assay type in all cases: physicochemical
[1] = Hard shell capsule stability in aqueous SBE-CD solutions; details: for content in fill composition for an HSIT rating of at least 3: SAE-CD, PVP and water fill, CAPSUGEL HPMC hard shell capsule; for failure time: vcap, monitoring discontinued after fourteen days
Protocol: Two types of hard shell capsules obtained from […] were evaluated. A conventional hard gelatin capsule (HCAP) and a hard HPMC (hydroxypropyl methylcellulose) capsule (VCAP) were evaluated under identical conditions using aqueous solutions differing in the concentration of SBE-CD (sulfobutyl ether cyclodextrin).
In the absence of SBE or another shell-stabilizing material, these shell materials were unstable to erosion, dissolution, swelling and degradation by water. Under the conditions of the assay, SBE cyclodextrin was able to stabilize the VCAP shells for ≧14 days even at concentrations of ≧30% wt. of the fill composition. In this assay, monitoring was discontinued after fourteen days.

[2] = as above; details: SAE-CD, PVP and water fill; CAPSUGEL HGC
[3] = Shell stability on exposure to aqueous fill composition (half-shell integrity test, H.S.I.T.); details: for content in fill composition for an HSIT rating of at least 3: PVP and water fill, hydrophilic fill-grade BANNER SGC
Excerpt: Agitation continued until all the SAE-CD dissolved.

[4] = as above; details: SAE-CD, PVP and water fill; hydrophilic fill-grade CARDINAL SGC
[5] = H.S.I.T. on starch capsule; details: for content in fill composition for an HSIT rating of at least 3: SAE-CD, PVP and water fill, VEGAGEL hard shell capsule
Excerpt: FIG. 3 depicts a chart of the relationship between concentration of SBE cyclodextrin and H.S.I.T. (HALF-SHELL integrity test) rating for HGC (hard gelatin capsule From […]), HGS (hard gelatin capsule from SHIONOGI), HPC (hard hydroxypropyl methylcellulose shell from […]), and HPS (hard hydroxypropyl methylcellulose shell from SHIONOGI), and SSS (soft starch shell […]). The stability obtained was dependent upon the composition of the capsule gel.
FIGS. 10a-10i depict ternary graphs correlating the concentration of SAE-CD, water and PVP in a fill composition to the H.S.I.T. rating of a soft shell capsule exposed to the fill composition. Aqueous fill solutions comprising differing amounts of PVP, SAE-CD and water were prepared. The stability tests were conducted as described below. The capsules described herein were used: SHIONOGI HGC (hard gelatin capsule) (FIG. 10A), […] HPMC hard shell capsule (FIG. 10b), SHIONOGI HPMC hard shell capsule (FIG. 10C), […] HGC (FIG. 10D), VEGAGEL hard shell capsule (FIG. 10E), hydrophilic fill-grade CARDINAL SGC (soft gelatin capsule) (FIG. 10f), lipophilic fill-grade CARDINAL SGC (FIG. 10g), hydrophilic fill-grade BANNER SGC (FIG. 10h), and lipophilic fill-grade BANNER SGC (FIG. 10i). No other shell-stabilizing material(s) was (were) included in the fill compositions evaluated. The results varied according to the capsule used. Stabilized aqueous fill composition-containing capsule formulations can be achieved with each capsule if one or more of the following fill compositions detailed below are used. • 1. […]

[6] = Shell stability on exposure to aqueous fill composition (half-shell integrity test, H.S.I.T.); details: for content in fill composition for an HSIT rating of at least 3: PVP and water fill, lipophilic fill-grade CARDINAL SGC
Protocol: The same tests were performed on gelatin capsules obtained from CARDINAL HEALTH.

[7] = 40% wt. cyclodextrin derivative in water, HFB
[8] = 50% wt. cyclodextrin derivative in water, HFB
[9] = 55% wt. cyclodextrin derivative in water, HFB
[10] = 60% wt. cyclodextrin derivative in water, HFB
[11] = 40% wt. cyclodextrin derivative in water, LFC
[12] = 50% wt. cyclodextrin derivative in water, LFC
[13] = 55% wt. cyclodextrin derivative in water, LFC
[14] = 60% wt. cyclodextrin derivative in water, LFC

Compound: O [Water]
content in fill composition for an HSIT rating of at least 3 [1]: ≦70% | content in fill composition for an HSIT rating of at least 3 [2]: ≦36% | content in fill composition for a stabilized capsule formulation ([3]; SAE-CD, PEG and water fill, HFB): ≦48% | content in fill composition for an HSIT rating of at least 3 ([3]; SAE-CD): ≦54% | content in fill composition for an HSIT rating of at least 3 [4]: ≦54% | content in fill composition for an HSIT rating of at least 3 [5]: ≦64% | content in fill composition for a stabilized capsule formulation ([6]; SAE-CD, PEG and water fill, LFC): ≦48% | content in fill composition for an HSIT rating of at least 3 ([6]; SAE-CD): ≦49%

failure time ([1]; 30% SBE solution): >14 days | failure time ([1]; 40% SBE solution): >14 days | failure time ([1]; 50% SBE solution): >14 days | failure time ([1]; 60% SBE solution): >14 days | time VCAP shells were stabilized ([1]; concentrations of ≧30% wt. of the fill composition): ≥ 14 days | content in fill composition for a stabilized capsule formulation [3]: ≧12% | Increase in shell size [3, 7]: 2× × original | Observations [3, 7]: shape intact | Time for failure [3, 7]: 3 days | Increase in shell size [3, 8]: 2.5 × original | Observations [3, 8]: Slightly | Time for failure [3, 8]: 16 days | Increase in shell size [3, 9]: 2 × original | Observations [3, 9]: Deformed | Time for failure [3, 9]: 10 days | Increase in shell size [3, 10]: no change | Observations [3, 10]: No change | Time for failure [3, 10]: ≧21 days | stability provided to capsules ([5]; SBE concentration of about ≧30% wt., soft starch capsules, FIG. 3): at least a one-week stability | content in fill composition for a stabilized capsule formulation [6]: ≧18% | Increase in shell size [6, 11]: >3 × original | Observations [6, 11]: shape intact | Time for failure [6, 11]: 4 days | Increase in shell size [6, 12]: 2 × original | Observations [6, 12]: deformed | Time for failure [6, 12]: 7 days | Increase in shell size [6, 13]: Slightly enlarged | Observations [6, 13]: No deformities | Time for failure [6, 13]: ≧14 days | Increase in shell size [6, 14]: no change | Observations [6, 14]: no change | Time for failure [6, 14]: >21 days
Compound: sulfobutyl ether cyclodextrin [SAE-CD]
content in fill composition for an HSIT rating of at least 3 [1]: ≧6% | content in fill composition for an HSIT rating of at least 3 [2]: ≧24% | content in fill composition for an HSIT rating of at least 3 ([3]; SAE-CD): ≧6% | content in fill composition for an HSIT rating of at least 3 [4]: ≧6% | content in fill composition for an HSIT rating of at least 3 [5]: ≧6% | content in fill composition for an HSIT rating of at least 3 ([6]; SAE-CD): ≧6%
